Assay results from EP1621631A1, “Method for the production of C6 and/or C9 aldehydes and alcohols in plants by 9/13 divinyl ether synthase” (Georg-August-Universität Göttingen, priority 2004, dated 2006).

Experiments:
9/13-DES = assay: Determination of the pH optimum of 9/13-DES (endpoint determination by normal-phase and reversed-phase HPLC); assay type: biochemical, Knoblauch; conditions: substrate of recombinant 9/13-DES; pH 5,5 bis 8,6; no pH optimum could be determined
Description: Das pH-Optimum wurde mittels einer Endpunktbestimmung mit Hilfe der Normal-Phasen-HPLC und der Umkehr-Phasen-HPLC ermittelt. Es wurden sowohl 9-HPOD als auch 13-HPOD als Substrate der DES verwendet. Für die Bestimmung des pH-Optimums wurde die Umsetzung bei pH-Werten von 4,5 bis 8,5 in Schritten von 0,5 pH-Einheiten durchgeführt. Für pH 7 wurden zweimal drei Messungen durchgeführt, da für diesen pH-Wert sowohl ein 50 mM Natrium-Phosphatpuffer als auch ein 50 mM Tris/HCl-Puffer verwendet wurde. Für die Umsetzungen wurden zwischen 25 und 80 nmol der Hydroperoxide eingesetzt. Von dem einzelnen Hydroperoxid wurde dabei immer die gleiche Menge für jede Umsetzung eingesetzt. Parallel zu den Proben für den pH-Optimumstest wurden drei Ansätze mit Zelllysat des leeren Vektors in E. coli mit 13-HPOD inkubiert. Die Leervektorkontrolle zeigte keine Divinylether-Bildung, es konnte nur das Hydroperoxid nachgewiesen werden.

[1] = system: 9/13-Divinylethersynthase aus Knoblauch; assay: Photometric determination of the substrate specificity of 9/13-DES; assay type: biochemical; conditions: purified 9/13-DES; 100 µM hydroperoxide; room temperature; decrease of extinction at 234 or 236 nm over one minute
Description: Für die Bestimmung der Substratspezifität wurde die 9/13-Divinylethersynthase aus Knoblauch aus einer Expressionskultur aufgereinigt. Dazu wurde zunächst eine 400 ml Expressionskultur unter den schon vorher beschriebenen Bedingungen angeimpft und angezogen. Die Zellen wurden nach zweitägiger Inkubation durch 15-minütige Zentrifugation mit 4000 g bei 4°C sedimentiert. Das Sediment wurde in 20 ml 50 mM Na-Phosphat, pH 8, resuspendiert und mit Ultraschall (Sonopuls GM 70, Bandelin, Berlin) für 5-Mal eine Minute bei 50 % Leistung und 50 % Impuls aufgeschlossen. Die Zelltrümmer wurden 15 min bei 4000 x g sedimentiert und aus dem Überstand wurden durch eine weitere Zentrifugation (1 h bei 100000 x g) die Zellmembranen sedimentiert. Das Membransediment wurde für 1 h in 50 mM Na-Phosphat, pH 8, mit 1M NaCl und 0,1 % (v/v) TritonX-100 inkubiert, um die Membranproteine zu solubilisieren. Anschließend wurde erneut 1 h bei 100000 x g zentrifugiert. Der Überstand wurde mit Talon Metal Affinity Resin (Clontech, Palo Alto, USA) (200 µl Bettvolumen) über Nacht bei 4 °C geschüttelt. Danach wurde das Material auf eine Leersäule (T.J. Baker, Phillipsburg, N.J., USA) gegeben. Die Elution erfolgte mit 3 ml 50 mM Tris/HCl pH 6,3, 10 % Glycerin, 0,1 % Tween 20, 0,5 M NaCl und 0,1 M EDTA. Durch eine PD-10 Säule (Amersham pharmacia biotech, UK) wurde das Protein in 50 mM Na-Phosphat-Puffer pH 8 umgepuffert.
Das so aufgereinigte Protein wurde für die Tests im Photometer eingesetzt. Die Messungen erfolgten bei Raumtemperatur und es wurde immer bei der Wellenlänge des eingesetzten Hydroperoxids (234 bzw. 236 nm) bei einer Konzentration 100 µM für eine Minute die Abnahme der Extinktion aufgezeichnet. Die Messungen erfolgten in einer 100 µl Quarzküvette. Die Reaktion wurde durch die Zugaben von 1 µl der Proteinlösung gestartet.

Row | Structure (SMILES) | Umsetzung über den pH-Bereich (9/13-DES) | Substratspezifität (Umsetzung durch 9/13-DES) [1]
1 | CCCCC/C=C\C=C\[C@H](CCCCCCCC(=O)O)OO [9-HPOD, (9S, 10E, 12Z)-9-Hydroperoxy-10,12-Octadecadiensäure] | gleich gut umgesetzt | in etwas geringerem Maße
2 | CC/C=C\C/C=C\C=C\[C@H](CCCCCCCC(=O)O)OO [9-HPOT, (9S, 10E, 12Z, 15Z)-9-Hydroperoxy-10,12,15-Octadecatriensäure] |  | wesentlich weniger stark umgesetzt
3 | CCCCC[C@@H](/C=C/C=C\CCCCCCCC(=O)O)OO [13-HPOD, (13S, 9Z, 11E)-13-Hydroperoxy-9,11-Octadecadiensäure] |  | bevorzugt
4 | CC/C=C\C[C@@H](/C=C/C=C\CCCCCCCC(=O)O)OO [13-HPOT, (9Z, 11E, 13S, 15Z)-13-Hydroperoxy-9,11,15-Octadecatriensäure] |  | wesentlich weniger stark umgesetzt
